Data on 22 compounds can be found in patent publication US8063071B2 (GlaxoSmithKline, LLC, priority 2007, dated 2011).

Where a name gives a salt, the structure may show the parent alone. Where only a bound is given, the exact number is not on record here.

The subject of assay [1] is human monocyte stimulated cytokine production (TNF-α). The assay is described as follows: Monocyte assay (LPS-stimulated TNF-α production). The format is cell-based. The settings on record: 24 h, 200 ng/mL LPS, TNF-α by ELISA. In short, it runs like this: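 TNF-α release was measured by ELISA after 24 hrs at 37 C. Cells were stimulated with 200 ng/mL E. coli LPS, with compound added 30 minutes beforehand (0.1% DMSO vehicle). Cells were Ficoll/MACS-isolated CD14+ human monocytes adhered at 1×10^6 cells/mL, and viability was checked by trypan blue.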

In assay [2] the target is T1, Recombinant human IKKβ (residues 1-737) (Homo sapiens, UniProt O14920).
T1 construct: Recombinant human IKKβ (residues 1-737); GST (C); made in house
T1 sequence (O14920 1-737): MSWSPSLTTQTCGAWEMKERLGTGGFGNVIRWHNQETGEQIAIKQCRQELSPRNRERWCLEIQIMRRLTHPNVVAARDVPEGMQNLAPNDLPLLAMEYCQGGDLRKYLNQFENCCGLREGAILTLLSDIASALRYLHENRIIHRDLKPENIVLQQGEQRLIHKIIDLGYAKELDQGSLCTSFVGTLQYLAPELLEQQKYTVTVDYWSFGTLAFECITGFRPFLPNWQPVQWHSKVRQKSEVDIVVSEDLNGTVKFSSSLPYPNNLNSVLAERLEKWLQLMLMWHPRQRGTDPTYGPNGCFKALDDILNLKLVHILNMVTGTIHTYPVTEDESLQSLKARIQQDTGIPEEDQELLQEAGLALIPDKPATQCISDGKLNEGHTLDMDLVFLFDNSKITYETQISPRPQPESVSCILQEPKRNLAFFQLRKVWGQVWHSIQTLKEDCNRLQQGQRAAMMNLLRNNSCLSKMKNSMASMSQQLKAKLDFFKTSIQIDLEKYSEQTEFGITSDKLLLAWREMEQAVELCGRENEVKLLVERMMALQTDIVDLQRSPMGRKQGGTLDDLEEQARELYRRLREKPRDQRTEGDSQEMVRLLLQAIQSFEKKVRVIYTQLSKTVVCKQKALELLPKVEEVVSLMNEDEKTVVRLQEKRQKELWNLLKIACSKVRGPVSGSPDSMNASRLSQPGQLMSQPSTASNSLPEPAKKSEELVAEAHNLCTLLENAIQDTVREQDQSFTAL
The assay is described as follows: IKK2 assay (TR-FRET). It is filed as biochemical. As to conditions: ATP 1 μM final, read-out: pIC50 against IKK2 (converted). In short, it runs like this: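 TR-FRET readout (665 nm over 620 nm Eu reference) of GST-IB Ser32/36 phosphorylation after 60 min detection. Reaction: 1 μM ATP, 25 nM substrate, 0.5-5 nM GST-fused IKKβ 1-737 from baculovirus, pH 7.4 HEPES buffer, 1.7% DMSO, 15 min room temperature, EDTA-terminated.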

On to `CCS(=O)(=O)N1CCC(c2c[nH]c3c(C(N)=O)cc(-c4cc(CNC)cc(CNC)c4)cc23)CC1` [Example 270, 5-{3,5-bis[(methylamino)methyl]phenyl}-3-[1-(ethylsulfonyl)-4-piperidinyl]-1H-indole-7-carboxamide trifluoroacetate], for which the IC50 was over 1 µM in assay [1] and at most 10 µM in assay [2].
Taken in the same sequence, the figures for `CCNCc1cc(-c2cc(C(N)=O)c3[nH]cc(C4CCN(S(=O)(=O)CC)CC4)c3c2)ccc1F` [Example 271, 5-{3-[(ethylamino)methyl]-4-fluorophenyl}-3-[1-(ethylsulfonyl)-4-piperidinyl]-1H-indole-7-carboxamide trifluoroacetate] were at most 1.5 µM and at most 10 µM.
Regarding `CCS(=O)(=O)N1CCC(c2c[nH]c3c(C(N)=O)cc(-c4ccc(F)c(CNC(CO)CO)c4)cc23)CC1` [Example 272, 3-[1-(ethylsulfonyl)-4-piperidinyl]-5-[4-fluoro-3-({[2-hydroxy-1-(hydroxymethyl)ethyl]amino}methyl)phenyl]-1H-indole-7-carboxamide trifluoroacetate (salt)], the IC50 in assay [1] is over 1 µM; in assay [2], at most 10 µM.
Turning to `CCS(=O)(=O)N1CCC(c2c[nH]c3c(C(N)=O)cc(-c4ccc(F)c(CN[C@@H](C)CO)c4)cc23)CC1` [Example 273, 3-[1-(ethylsulfonyl)-4-piperidinyl]-5-[4-fluoro-3-({[(1S)-2-hydroxy-1-methylethyl]amino}methyl)phenyl]-1H-indole-7-carboxamide trifluoroacetate (salt)], the IC50 was at most 1.5 µM in assay [1] and at most 10 µM in assay [2].
For `CCS(=O)(=O)N1CCC(c2c[nH]c3c(C(N)=O)cc(-c4ccc(F)c(CNC5CC5)c4)cc23)CC1` [Example 274, 5-{3-[(cyclopropylamino)methyl]-4-fluorophenyl}-3-[1-(ethylsulfonyl)-4-piperidinyl]-1H-indole-7-carboxamide trifluoroacetate], in that order: at most 1.5 µM and at most 10 µM.
As for `CCS(=O)(=O)N1CCC(c2c[nH]c3c(C(N)=O)cc(-c4ccc(F)c(CNC5CCC5)c4)cc23)CC1` [Example 275, 5-{3-[(cyclobutylamino)methyl]-4-fluorophenyl}-3-[1-(ethylsulfonyl)-4-piperidinyl]-1H-indole-7-carboxamide trifluoroacetate], the IC50 in assay [1] was at most 1.5 µM; in assay [2], at most 10 µM.
Turning to `CCS(=O)(=O)N1CCC(c2c[nH]c3c(C(N)=O)cc(-c4cccc(CN5CCCC5)c4)cc23)CC1` [Example 276, 3-[1-(ethylsulfonyl)-4-piperidinyl]-5-[3-(1-pyrrolidinylmethyl)phenyl]-1H-indole-7-carboxamide trifluoroacetate], the IC50 in assay [1] is at most 1.5 µM; in assay [2], at most 10 µM.
Taken in the same sequence, the figures for `CCS(=O)(=O)N1CCC(c2c[nH]c3c(C(N)=O)cc(-c4cccc(C(C)NC)c4)cc23)CC1` (centres unmarked) [Example 292, 3-[1-(ethylsulfonyl)-4-piperidinyl]-5-{3-[1-(methylamino)ethyl]phenyl}-1H-indole-7-carboxamide trifluoroacetate] were at most 1.5 µM and at most 10 µM.
Consider `CCS(=O)(=O)N1CCC(c2c[nH]c3c(C(N)=O)cc(-c4cccc(C(C)NC(C)C)c4)cc23)CC1` (centres unmarked) [Example 293, 3-[1-(ethylsulfonyl)-4-piperidinyl]-5-(3-{1-[(1-methylethyl)amino]ethyl}phenyl)-1H-indole-7-carboxamide trifluoroacetate], for which the IC50 in assay [1] is at most 1.5 µM; in assay [2], at most 10 µM.
Take `CCS(=O)(=O)N1CCC(c2c[nH]c3c(C(N)=O)cc(-c4cccc(C(C)NCC(C)C)c4)cc23)CC1` (centres unmarked) [Example 294, 3-[1-(ethylsulfonyl)-4-piperidinyl]-5-(3-{1-[(2-methylpropyl)amino]ethyl}phenyl)-1H-indole-7-carboxamide trifluoroacetate]: the IC50 in assay [1] was at most 1.5 µM; in assay [2] it was at most 10 µM.
For `CCS(=O)(=O)N1CCC(c2c[nH]c3c(C(N)=O)cc(-c4cccc(C(C)NC5CCC5)c4)cc23)CC1` (centres unmarked) [Example 295, 5-{3-[1-(cyclobutylamino)ethyl]phenyl}-3-[1-(ethylsulfonyl)-4-piperidinyl]-1H-indole-7-carboxamide trifluoroacetate], in that order: at most 1.5 µM and at most 10 µM.
As to `CCS(=O)(=O)N1CCC(c2c[nH]c3c(C(N)=O)cc(-c4cccc(C(C)N5CCCC5)c4)cc23)CC1` (centres unmarked) [Example 296, 3-[1-(ethylsulfonyl)-4-piperidinyl]-5-{3-[1-(1-pyrrolidinyl)ethyl]phenyl}-1H-indole-7-carboxamide trifluoroacetate], the results for the IC50 in assay [1] and in assay [2] were at most 1.5 µM and at most 10 µM, respectively.
Taken in the same sequence, the figures for `CCS(=O)(=O)N1CCC(c2c[nH]c3c(C(N)=O)cc(-c4cccc(C5CSCCN5)c4)cc23)CC1` (centres unmarked) [Example 297, 3-[1-(ethylsulfonyl)-4-piperidinyl]-5-[3-(3-thiomorpholinyl)phenyl]-1H-indole-7-carboxamide trifluoroacetate] were at most 1.5 µM and at most 10 µM.
Taken in the same sequence, the figures for `CCS(=O)(=O)N1CCC(c2c[nH]c3c(C(N)=O)cc(-c4ccc(C5CNCCN5)s4)cc23)CC1` (centres unmarked) [Example 298, 3-[1-(ethylsulfonyl)-4-piperidinyl]-5-[5-(2-piperazinyl)-2-thienyl]-1H-indole-7-carboxamide trifluoroacetate] were at most 1.5 µM and at most 10 µM.
Taken in the same sequence, the figures for `CCS(=O)(=O)N1CCC(c2c[nH]c3c(C(N)=O)cc(-c4ccc(C5CNCCN5)cc4)cc23)CC1` (centres unmarked) [Example 299, 3-[1-(ethylsulfonyl)-4-piperidinyl]-5-[4-(2-piperazinyl)phenyl]-1H-indole-7-carboxamide trifluoroacetate] were over 1 µM and at most 10 µM.
For the compound `CCS(=O)(=O)N1CCC(c2c[nH]c3c(C(N)=O)cc(-c4cccc(C5CNCCN5)c4)cc23)CC1` (centres unmarked) [Example 300, 3-[1-(ethylsulfonyl)-4-piperidinyl]-5-[3-(2-piperazinyl)phenyl]-1H-indole-7-carboxamide trifluoroacetate], the IC50 in assay [1] is over 1 µM; in assay [2], at most 10 µM.
For `CCS(=O)(=O)N1CCC(c2c[nH]c3c(C(N)=O)cc(-c4ccc(N5CCOCC5)nn4)cc23)CC1` [Example 301, 3-[1-(ethylsulfonyl)-4-piperidinyl]-5-[6-(4-morpholinyl)-3-pyridazinyl]-1H-indole-7-carboxamide trifluoroacetate], in that order: over 1 µM and at most 10 µM.
Take `CCS(=O)(=O)N1CCC(c2c[nH]c3c(C(N)=O)cc(-c4ccc(N5CCCC5)nn4)cc23)CC1` [Example 302, 3-[1-(ethylsulfonyl)-4-piperidinyl]-5-[6-(1-pyrrolidinyl)-3-pyridazinyl]-1H-indole-7-carboxamide trifluoroacetate]: the IC50 in assay [1] was over 1 µM; in assay [2] it was at most 10 µM.
For `CCS(=O)(=O)N1CCC(c2c[nH]c3c(C(N)=O)cc(-c4ccccc4CNC)cc23)CC1` [Example 303, 3-[1-(ethylsulfonyl)-4-piperidinyl]-5-{2-[(methylamino)methyl]phenyl}-1H-indole-7-carboxamide trifluoroacetate], the IC50 in assay [1] was over 1 µM; in assay [2] it was at most 10 µM.
On to `CCS(=O)(=O)N1CCC(c2c[nH]c3c(C(N)=O)cc(-c4cccc(CNCc5cccs5)c4)cc23)CC1` [Example 304, 3-[1-(ethylsulfonyl)-4-piperidinyl]-5-(3-{[(2-thienylmethyl)amino]methyl}phenyl)-1H-indole-7-carboxamide trifluoroacetate], for which the IC50 in assay [1] was at most 1.5 µM; in assay [2], at most 10 µM.
On to `CCS(=O)(=O)N1CCC(c2c[nH]c3c(C(N)=O)cc(-c4cccc(CNCc5ccc(C)o5)c4)cc23)CC1` [Example 305, 3-[1-(ethylsulfonyl)-4-piperidinyl]-5-[3-({[(5-methyl-2-furanyl)methyl]amino}methyl)phenyl]-1H-indole-7-carboxamide trifluoroacetate], for which the IC50 in assay [1] was at most 1.5 µM; in assay [2], at most 10 µM.
For `CCS(=O)(=O)N1CCC(c2c[nH]c3c(C(N)=O)cc(-c4cccc(CNC[C@H]5CCCO5)c4)cc23)CC1` [Example 306, 3-[1-(ethylsulfonyl)-4-piperidinyl]-5-[3-({[(2R)-tetrahydro-2-furanylmethyl]amino}methyl)phenyl]-1H-indole-7-carboxamide trifluoroacetate], in that order: at most 1.5 µM and at most 10 µM.
